Laboratory results from US9957264B2 (Merck Sharp & Dohme Corp., priority 2013, dated 2018).

What was measured:
[1] = biological target: JAK1 (recombinant purified GST-tagged catalytic domain) (Homo sapiens (Human), UniProt P23458); experiment: Jak Biochemical HTRF Assay (JAK1); conditions: [ATP] 31.8 μM
Outline: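 Compounds in DMSO were pre-equilibrated with enzyme and biotinylated peptide, then ATP was added and the reaction proceeded 120 min at room temperature. EDTA-based stop buffer with detection reagents was added, and after 60 min the time-resolved FRET ratio was read. IC50s came from 4-parameter dose–response fits.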

[2] = biological target: JAK2 (recombinant purified GST-tagged catalytic domain) (Homo sapiens (Human), UniProt O60674); experiment: Jak Biochemical HTRF Assay (JAK2); conditions: [ATP] 8.5 μM
Sequence of JAK2 (recombinant purified GST-tagged catalytic domain) (O60674 849-1124): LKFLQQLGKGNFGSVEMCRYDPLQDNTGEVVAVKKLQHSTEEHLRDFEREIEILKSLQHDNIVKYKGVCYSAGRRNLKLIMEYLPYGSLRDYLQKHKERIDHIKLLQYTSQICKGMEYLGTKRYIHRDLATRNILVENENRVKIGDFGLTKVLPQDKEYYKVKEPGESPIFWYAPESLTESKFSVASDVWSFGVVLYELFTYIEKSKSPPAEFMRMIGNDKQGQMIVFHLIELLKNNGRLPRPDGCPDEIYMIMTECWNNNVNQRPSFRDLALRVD

Sequence of JAK1 (recombinant purified GST-tagged catalytic domain) (P23458 875-1153): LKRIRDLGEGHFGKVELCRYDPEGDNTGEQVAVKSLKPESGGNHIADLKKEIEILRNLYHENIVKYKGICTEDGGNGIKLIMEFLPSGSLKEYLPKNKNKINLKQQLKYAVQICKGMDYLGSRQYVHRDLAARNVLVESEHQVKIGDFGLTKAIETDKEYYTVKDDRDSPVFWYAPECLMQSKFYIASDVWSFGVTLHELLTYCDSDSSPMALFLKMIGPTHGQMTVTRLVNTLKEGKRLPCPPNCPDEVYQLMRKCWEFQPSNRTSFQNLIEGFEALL

Compound	IC50 [1]	IC50 [2]
Cc1cc(Nc2nn(C3(CC#N)CCN(C(=O)OC(C)(C)C)CC3)c3cc[nH]c(=O)c23)ccc1C(=O)N1CCSCC1 [Example 21-14, tert-butyl-4-(cyanomethyl)-4-(3-(3-methyl-4-(thiomorpholine-4-carbonyl)phenylamino)-4-oxo-4,5-dihydropyrazolo[4,3-c]pyridin-1-yl)piperidine-1-carboxylate]	0.33 nM	0.32 nM
CC(C)(C)OC(=O)N1CCC(CC#N)(n2nc(Nc3ccc4c(c3)CN(C3CCN(CC(F)(F)F)CC3)S4(=O)=O)c3c(=O)[nH]ccc32)CC1 [Example 21-15, tert-butyl-4-(cyanomethyl)-4-(3-((1,1-dioxido-2-(1-(2,2,2-trifluoroethyl)piperidin-4-yl)-2,3-dihydrobenzo[d]isothiazol-5-yl)amino)-4-oxo-4,5-dihydro-1H-pyrazolo[4,3-c]pyridin-1-yl)piperidine-1-carboxylate]	0.77 nM	0.65 nM
Cc1cc(Nc2nn(C3(CC#N)CCN(C(=O)OC(C)(C)C)CC3)c3cc[nH]c(=O)c23)ccc1C(=O)N1CCOCC1 [Example 21-20, tert-butyl 4-(cyanomethyl)-4-(3-(3-methyl-4-(morpholine-4-carbonyl)phenylamino)-4-oxo-4,5-dihydropyrazolo[4,3-c]pyridin-1-yl)piperidine-1-carboxylate]	0.18 nM	0.17 nM
CS(=O)(=O)NC(=O)[C@@H]1CC[C@@](CC#N)(n2nc(Nc3ccc(Cl)cc3)c3c(=O)[nH]ccc32)CO1 [Example 22, (2S,5S)-5-(3-((4-chlorophenyl)amino)-4-oxo-4,5-dihydro-1H-pyrazolo[4,3-c]pyridin-1-yl)-5-(cyanomethyl)-N-(methylsulfonyl)tetrahydro-2H-pyran-2-carboxamide]	3.78 nM	23.3 nM
CN(C)C(=O)[C@@H]1CC[C@@](CC#N)(n2nc(Nc3ccc(Cl)cc3)c3c(=O)[nH]ccc32)CO1 [Example 23, (2S,5S)-5-(3-((4-chlorophenyl)amino)-4-oxo-4,5-dihydro-1H-pyrazolo[4,3-c]pyridin-1-yl)-5-(cyanomethyl)-N,N-dimethyltetrahydro-2H-pyran-2-carboxamide]	0.23 nM	2.5 nM
CC(C)(O)[C@@H]1CC[C@@](CC#N)(n2nc(Nc3ccc(Cl)cc3)c3c(=O)[nH]ccc32)CO1 [Example 24, 2-((3S,6S)-3-(3-((4-chlorophenyl)amino)-4-oxo-4,5-dihydro-1H-pyrazolo[4,3-c]pyridin-1-yl)-6-(2-hydroxypropan-2-yl)tetrahydro-2H-pyran-3-yl)acetonitrile]	0.34 nM	1.13 nM
